From article PMC6419424, “Rational protein design of Bacillus sp. MN chitosanase for altered substrate binding and production of specific chitosan oligomers” (Journal of Biological Engineering, 2019)

Target: T1, CSN (BspCsnMN) (Bacillus sp. MN, UniProt H9CXV8)
T1 construct: GH8 chitosanase (EC 3.2.1.132), Strep-tag II fusion (pET-22b(+)::StrepII-csn), expressed in E. coli Rosetta 2 (DE3), Strep-Tactin purified
Assay: UHPLC-ELSD-ESI-MS product quantification, Hill fit
Format: biochemical
Settings: 40 mM sodium acetate pH 6, 30 °C, 10 min

T1 sequence (H9CXV8 entry or part of it): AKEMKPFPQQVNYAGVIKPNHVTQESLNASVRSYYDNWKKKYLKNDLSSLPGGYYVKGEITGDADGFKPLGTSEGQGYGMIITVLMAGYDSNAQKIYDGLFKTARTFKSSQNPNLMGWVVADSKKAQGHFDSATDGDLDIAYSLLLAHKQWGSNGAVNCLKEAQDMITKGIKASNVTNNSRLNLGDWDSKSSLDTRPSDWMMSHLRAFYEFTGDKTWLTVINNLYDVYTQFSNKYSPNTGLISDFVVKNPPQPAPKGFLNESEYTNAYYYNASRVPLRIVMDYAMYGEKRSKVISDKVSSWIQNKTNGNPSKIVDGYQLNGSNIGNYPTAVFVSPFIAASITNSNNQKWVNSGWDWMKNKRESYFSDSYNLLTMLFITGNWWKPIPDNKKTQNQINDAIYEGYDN

## N[C@H]1[C@H](O[C@H]2[C@H](O)[C@@H](N)[C@H](O[C@H]3[C@H](O)[C@@H](N)[C@H](O[C@H]4[C@H](O)[C@@H](N)[C@H](O[C@H]5[C@H](O)[C@@H](N)C(O)O[C@@H]5CO)O[C@@H]4CO)O[C@@H]3CO)O[C@@H]2CO)O[C@H](CO)[C@@H](O)[C@@H]1O (stereo partly shown) [D5]
  UHPLC-ELSD-ESI-MS product quantification, Hill fit: CSN showed high activity on the polymer, and it was even slightly more active on D5
